According to patent publication US20040029965A1, “Formulations for reducing or eliminating toxicity of enviromental hormones containing ursodeoxycholic acid” (priority 2000, published 2004):
Marks after values point to notes of the source that are not given here.

Experiments:
Type in all cases: in vivo
C57B1/6J mice [1] = experiment: Electron microscopy of testes (cellular microstructures); details: TCDD 27.5 μg/kg alone; FIG. 9
Method: (§1) 2,3,7,8-tetrachlorodibenzo-p-dioxin (TCDD) dissolved in toluene (purity of 95% or more as a result of gas chromatography analysis), manufactured by Chem. Services Inc. in USA, was volatilized with nitrogen to obtain powder. The obtained powder was dissolved in a mixed solvent containing acetone and corn oil with a volume ratio of 1:6. The resulting solution each containing 110, 27.5 and 6.9 μg/kg of TCDD was subcutaneously injected to mice at a volume of 5 ml per body weight. […] The mice were supplied with the feed from 10 days before (pre-administration) to 60 days after administration of TCDD (post-administration).
Upon completion of the experiment for 60 days, the experimental animals were fasted for 24 hours and anesthetized with ether. Then, they were abdominally incised and blood was gathered from abdominal vena cava. They were sacrificed by the release of blood. Liver, kidneys, testes and epididymides were extracted and all the extracted organs were weighed. Only the testes were separately kept and observed under optical and electron microscopes. For biochemical finding test, serum was separated from blood with a centrifuge and the separated serum was analyzed with an automated blood biochemical analyzer, Dimension (Dupont, USA). Blood was put to another blood gathering bottle and then, analyzed with an automated blood cell analyzer, Celldyn (Abbott, USA). […]

C57B1/6J mice [2] = experiment: Optical microscopy of testes (histopathological findings); details: TCDD 27.5 μg/kg alone; FIG. 2
Method: as §1
(§2) Upon completion of the experiment for 60 days, the experimental animals were fasted for 24 hours and anesthetized with ether. Then, they were abdominally incised and blood was gathered from abdominal vena cava. They were sacrificed by the release of blood. Liver, kidneys, testes and epididymides were extracted and all the extracted organs were weighed. Only the testes were separately kept and observed under optical and electron microscopes. For biochemical finding test, serum was separated from blood with a centrifuge and the separated serum was analyzed with an automated blood biochemical analyzer, Dimension (Dupont, USA). Blood was put to another blood gathering bottle and then, analyzed with an automated blood cell analyzer, Celldyn (Abbott, USA).
The extracted testes were fixed in 10% neutralized formalin buffer for 24 hours and washed with the flowing water. It was subsequently dehydrated with ethanol and cleared with xylene and then, embedded with paraffin. It was sectioned with microtome (microm is HM 440E) to a thickness of 2-3 μm and then, double stained with hematoxylin and eosin to observe under an optical microscope.

C57B1/6J mice [3] = experiment: Hematological changes in mice by a single subcutaneous injection of TCDD; design: NEU / LYM / PLT: unit not given here
Method: Male C57B1/6J mice of 5 weeks old having the average weight of 18-22 g which had been bred in CRJ (Charles River in Japan) were purchased and used in this example as experimental animals. Those mice were acclimated under the constant breeding condition, i.e. the temperature of 24±1° C., the humidity of 60±10% and the light and darkness cycle of 12 hours, for one week and thereafter, utilized in the experiment.
as §1, §2
The results are expressed as Mean±Standard Deviation values. For statistical analysis of the body weight, feed and water uptake, biochemical findings, hematological findings and the weight of organ in an acute toxicity test, verification was performed by one way analysis of variance (ANOVA) in case of equal distribution. In case significance was recognized in ANOVA, the Student's t-test was performed in the levels of p<0.05 and p<0.01.
For hematological findings, white blood cell (WBC), neutrophil (NEU), lymphocyte (LYM), monocyte (MONO), eosinophil (EOS), basophil (BASO) and red blood cell (RBC) counts, and hemoglobin concentration (HGB), hematocrit (HCT), mean cell volume (MCV), mean corpuscular hemoglobin (MCH), mean corpuscular hemoglobin concentration (MCHC), red blood cell distribution width (RDW) and platelet count (PLT) were measured and the results are as follows.

Clc1cc2c(cc1Cl)Oc1cc(Cl)c(Cl)cc1O2 [TCDD, 2,3,7,8-tetrachlorodibenzo-p-dioxin]
heads of sperms, electron microphotograph (C57B1/6J mice [1]): Heads of sperms were frequently observed in cytoplasmic vacuoles of Sertoli cells
seminiferous tubules, optical microphotograph (C57B1/6J mice [2]): remarkably reduced spermatogenesis was observed
BASO (C57B1/6J mice [3]; TCDD 6.9 μg/kg alone): 0.21 ± 0.12 10^3
EOS (C57B1/6J mice [3]; TCDD 6.9 μg/kg alone): 0.01 ± 0.01 10^3
HCT (C57B1/6J mice [3]; TCDD 6.9 μg/kg alone): 43.12 ± 5.04%
HGB (C57B1/6J mice [3]; TCDD 6.9 μg/kg alone): 13.65 ± 1.34 g/dL
LYM (C57B1/6J mice [3]; TCDD 6.9 μg/kg alone): 4.27 ± 2.05 10^3
MCH (C57B1/6J mice [3]; TCDD 6.9 μg/kg alone): 14.70 ± 0.41 pg
MCHC (C57B1/6J mice [3]; TCDD 6.9 μg/kg alone): 31.76 ± 0.70 g/dL
MCV (C57B1/6J mice [3]; TCDD 6.9 μg/kg alone): 46.33 ± 1.97 fL
MONO (C57B1/6J mice [3]; TCDD 6.9 μg/kg alone): 0.10 ± 0.07 10^3
NEU (C57B1/6J mice [3]; TCDD 6.9 μg/kg alone): 0.40 ± 0.24 10^3
PLT (C57B1/6J mice [3]; TCDD 6.9 μg/kg alone): 1140.88 ± 133.39 10^3
RBC (C57B1/6J mice [3]; TCDD 6.9 μg/kg alone): 9.29 ± 0.85 10^6
RDW (C57B1/6J mice [3]; TCDD 6.9 μg/kg alone): 20.38 ± 1.21%
WBC (C57B1/6J mice [3]; TCDD 6.9 μg/kg alone): 5.94 ± 1.85 10^3
BASO (C57B1/6J mice [3]; TCDD 27.5 μg/kg alone): 0.17 ± 0.07 10^3
EOS (C57B1/6J mice [3]; TCDD 27.5 μg/kg alone): 0.018 ± 0.028 10^3
HCT (C57B1/6J mice [3]; TCDD 27.5 μg/kg alone): 39.12 ± 3.25 %
HGB (C57B1/6J mice [3]; TCDD 27.5 μg/kg alone): 12.90 ± 1.00 g/dL
LYM (C57B1/6J mice [3]; TCDD 27.5 μg/kg alone): 1.43 ± 0.60** 10^3
MCH (C57B1/6J mice [3]; TCDD 27.5 μg/kg alone): 14.17 ± 0.40 pg
MCHC (C57B1/6J mice [3]; TCDD 27.5 μg/kg alone): 33.02 ± 0.86 g/dL
MCV (C57B1/6J mice [3]; TCDD 27.5 μg/kg alone): 42.97 ± 0.56 fL
MONO (C57B1/6J mice [3]; TCDD 27.5 μg/kg alone): 0.07 ± 0.04 10^3
NEU (C57B1/6J mice [3]; TCDD 27.5 μg/kg alone): 2.58 ± 0.97** 10^3
PLT (C57B1/6J mice [3]; TCDD 27.5 μg/kg alone): 1473.17 ± 110.35** 10^3
RBC (C57B1/6J mice [3]; TCDD 27.5 μg/kg alone): 9.10 ± 0.71 10^6
RDW (C57B1/6J mice [3]; TCDD 27.5 μg/kg alone): 20.97 ± 2.27%
WBC (C57B1/6J mice [3]; TCDD 27.5 μg/kg alone): 4.29 ± 1.05 10^3
